From PMC6115017, “High-content imaging assay to evaluate Toxoplasma gondii infection and proliferation: A multiparametric assay to screen new compounds” (PLoS ONE, 2018) come the findings set out here.

Structures are written as SMILES. Read-outs that look alike come from different tables or passages of the source. Where only a bound is given, the exact number is not on record here.

The subject of test [1] is T. gondii proliferation (RH-YFP2 parasites in HFF). As to the kind of experiment: High Content Imaging (HCI) assay of T. gondii proliferation in HFF. To be noted: for inhibition at 10 µM / IC50 / inhibition at 20 µM: Toxoplasma gondii; for SI selectivity index: CV50/IC50: CV50 (HFF)/IC50 (T. gondii); for Parasite proliferation inhibition (PPI): tested at 10 μM, HFF infected with T. gondii, normalised to DMSO and 20 μM pyrimethamine.
Procedure: The parasites were collected just after host cell lysis, centrifuged at 800 g for 5 min, suspended in D10 medium, and counted.
A pyrimethamine (Sigma-Aldrich) stock solution was prepared at 10 mM in DMSO and was used at the final concentration of at 20 μM as a positive control for anti-Toxoplasma activity. Forty-six molecules were tested to determine their anti-Toxoplasma activity. Each molecule was prepared as a 10 mM stock solution in DMSO and tested at 10 μM. The hits were then further tested at the dilutions 0.01 to 100 μM.
(§1) Cells were seeded at a density of 1.10^4 cells per well into 96-well plates, and allowed to grow for 48 h at 37°C and 5% CO2 to obtain sub-confluent HFF monolayers. Cells were then infected with 4.10^4 parasites per well. The plates were centrifuged for 1 min at 200 g and placed at 37°C, 5% CO2, for 2 h. After 3 washes in PBS, infected cells were incubated at 37°C, 5% CO2, for 30 hours with 200 μL of DMEM complete medium alone or supplemented with anti-Toxoplasma molecules, i.e. the reference drug pyrimethamine, or the tested molecules. These tested drugs were incubated at 10 μM in screening hit assays.
Imaging of 96-well plates was performed using a high content imaging system (Olympus ScanR). […] Twenty fields per well were imaged.
The acquired images were analyzed using the ScanR analysis software. This analysis aimed to identify the parasitophorous vacuoles (V), the parasites’ nuclei (P) and host cells’ nuclei (C).
A fixed threshold was set up (Fig 1C) and a watershed algorithm was applied to split apart two vacuoles that associated with one another (Fig 1C, white arrow). A binary mask was obtained (Fig 1D) and objects on the image border were excluded. Segmentation of the parasites’ nuclei (Fig 1E–1G, arrowhead) was performed with the Hoechst fluorescence pixels (Fig 1E). In order to properly separate parasites’ nuclei one from another, an important rolling ball background subtraction filter was applied (5 pixels). Both the brightness and the contrast of filtered images were adjusted manually. Parasites were selected with an edge segmentation algorithm with a minimum object size of 10 pixels and a maximum object size of 30 pixels (Fig 1F). The obtained binary image allowed a clear detection of the parasites (Fig 1G).
The vacuole mask was merged with that of the parasites to identify parasites inside their parasitophorous vacuole and to exclude extracellular parasites or host cell nuclei (Fig 1H).

In test [2] the test system is Human foreskin fibroblasts (HFF) host cells. As to the kind of experiment: Host cell viability in the HCI assay (host cell nuclei count). The settings on record: 0.037 to 81 μM, 30 h.
Procedure: as §1
• the T. gondii infection rate (V/C), calculated as the ratio between the number of parasitophorous vacuoles per well (V) divided by the number of host cells per well (C); • the T. gondii proliferation index (P/V), calculated as the ratio between the number of parasites per well (P) divided by the number of parasitophorous vacuoles per well; • the intra-vacuolar distribution of parasites (percentage of parasitophorous vacuoles containing either 1, 2, 4, or 8 parasites); • the parasite proliferation inhibition (PPI), calculated with the following formula: PPI=(1−((P/V[mol]−P/V[Pyr])/(P/V[DMSO]−P/V[Pyr])))x100 where P/V[Pyr] was the average proliferation rate of Toxoplasma in the presence of 20 μM pyrimethamine, P/V[DMSO], the average proliferation rate of Toxoplasma in the presence of DMSO only and P/V[mol], the average proliferation rate of Toxoplasma in the presence of the tested molecule; • the cell viability (CV): (C [mol] / C[DMSO])x100, where C[mol] was the number of host cell nuclei per well containing the tested molecule and C[DMSO], the number of host cell nuclei per well containing the DMSO control.
A selectivity index activity (SI) was calculated as SI = CV50/IC50.
Test [3] concerns RH-YFP2 parasites in HFF. As to the kind of experiment: [3H]-uracil incorporation assay of T. gondii proliferation. The class given is cell-based. To be noted: Toxoplasma gondii; 20 μM pyrimethamine, 30 h in HFF; 100% proliferation = without pyrimethamine; 3 experiments; read-out: inhibition of parasite proliferation as determined by [3H]-uracil incorporation assay. How it is done:
The intracellular growth of RH-YFP2 parasites in HFF was monitored by selective incorporation of [^3H]-uracil, as previously described. […] After several washes to eliminate extracellular parasites, infected cells were cultured for 30 h with […] of [^3H]-uracil per well. Monolayers were washed 3 times in phosphate buffered saline (PBS), disrupted with 500 μL of lysis/scintillation solution (Optiphase Supermix, Perkin Elmer, France) and their radioactivity was measured by liquid scintillation counting using a Wallac MicroBeta TriLux (Perkin Elmer) calibrated for [^3H]-uracil. Two experimental replicates were performed in each of the 3 separate experiments.

In test [4] the test system is Toxoplasma gondii parasites in HFF. The test is described as follows: Manual microscopic counting of T. gondii proliferation. To be noted: 30 h, read-out: inhibition of parasite proliferation as determined by manual microscopic observations.
Procedure: as §1
Parasitophorous vacuoles, parasites and host cells were manually counted on the set of images provided by the Olympus IX81 microscope. Three different experiments were performed.
After 30 h of parasite culture in HFF, the total numbers of parasitophorous vacuoles and parasites were counted in wells with or without 20 μM pyrimethamine from 3 different experiments. The 100% proliferation corresponds to the number of parasites per well without pyrimethamine.
Where [5] appears, read: 30 h, read-out: Parasite proliferation inhibition (PPI).
[6] abbreviates: 30 h, read-out: IC50: concentration to inhibit 50% of T. gondii proliferation.

As to `Oc1ccc(-c2nnc(-c3ccccc3)o2)cc1` [DO10], in test [1] (setting [5]), the inhibition at 10 µM was found to be 0%.

`COc1ccc(C(=O)/C=C/c2ccc(OC)c(OC)c2)c(O)c1` [CH5]: the inhibition at 10 µM in test [1] (setting [5]) was 3%.

Take `Oc1ccc(-c2nnc(-c3ccc(O)cc3)o2)cc1` [DO14]: in test [1] (setting [5]), the inhibition at 10 µM was 0%.

On to `CCc1nc(N)nc(N)c1-c1ccc(Cl)cc1` [pyrimethamine, reference compound], for which the “CV50: concentration to inhibit the viability of 50% of host cells” value in test [2] was more than 81 µM. For the same compound, the inhibition at 20 µM turned out to be 43.2% in test [3]; 100% in test [1] (setting [5]); 25.2% in test [1] (30 h, read-out: inhibition of parasite proliferation as determined by HCI); 25% in test [4]. Further, in test [1], the “SI selectivity index: CV50/IC50” value is reported as more than 202. Further, the IC50 in test [1] (24 h, read-out: IC50 of pyrimethamine, reproducibility) turned out to be 600 nM; in test [1] (setting [6]), 400 ± 30 nM; in test [1] (72 h, read-out: IC50 of pyrimethamine, reproducibility), 440 nM.

On to `COc1ccc(C(=O)/C=C/c2cc(OC)c(OC)c(OC)c2)c(O)c1` [CH9], for which the “CV50: concentration to inhibit the viability of 50% of host cells” value in test [2] is more than 81 µM. For the same compound, in test [1], the “SI selectivity index: CV50/IC50” value is more than 12.3. Besides, in test [1] (setting [6]), the IC50 came out at 6600 ± 1500 nM. The inhibition at 10 µM in test [1] (setting [5]) amounted to 93%. Also, the “Parasite proliferation inhibition (PPI)” value in test [1] (30 h) is given as “high proliferation inhibition activity”.

For the compound `Oc1ccc(-c2nnc(-c3ccc(O)cc3O)o2)cc1` [DO13], in test [1] (setting [5]), the inhibition at 10 µM worked out at 0%.

Turning to `Oc1ccccc1-c1nnc(-c2ccccc2)o1` [DO12], in test [1] (setting [5]), the inhibition at 10 µM is 5%.

`O=C1/C(=C/c2ccc(Br)cc2)Oc2cc(O)cc(O)c21` [AU7]: in test [1] (setting [5]), the inhibition at 10 µM was determined as 0%.

With `COc1ccc(-c2nnc(-c3ccc(OC)cc3)o2)cc1` [DO4], the inhibition at 10 µM in test [1] (setting [5]) was determined as 0%.

As for `Oc1ccc(-c2nnc(-c3ccccc3)o2)c(O)c1` [DO11], the inhibition at 10 µM in test [1] (setting [5]) stood at 0%.

On to `COc1cc(/C=C/C(=O)c2ccc(OC)cc2O)cc(OC)c1` [CH12], for which the inhibition at 10 µM in test [1] (setting [5]) was found to be 73%.

For `COc1ccc(-c2nnc(-c3ccccc3)o2)c(OC)c1` [DO8], the inhibition at 10 µM in test [1] (setting [5]) came to 0%.

In the case of `COc1cccc(OC)c1/C=C/C(=O)c1c(OC)cccc1OC` [CH1], the inhibition at 10 µM in test [1] (setting [5]) amounted to 0%.

For the compound `COc1ccccc1-c1nnc(-c2ccccc2)o1` [DO6], the inhibition at 10 µM in test [1] (setting [5]) was found to be 0%.

With `c1ccc(-c2nnc(-c3ccccc3)o2)cc1` [DO9], the inhibition at 10 µM in test [1] (setting [5]) is 0%.

`COc1ccc(-c2nnc(-c3ccccc3OC)o2)cc1` [DO3]: the “CV50: concentration to inhibit the viability of 50% of host cells” value in test [2] was more than 81 µM. In addition, the “SI selectivity index: CV50/IC50” value in test [1] is reported as more than 3. Also, the IC50 in test [1] (setting [6]) stood at 27700 ± 6200 nM. The inhibition at 10 µM in test [1] (setting [5]) was determined as 81%. Moreover, in test [1] (30 h), the “Parasite proliferation inhibition (PPI)” value is “high proliferation inhibition activity”.

Turning to `COc1cccc(OC)c1/C=C/C(=O)c1ccccc1` [CH4], in test [1] (setting [5]), the inhibition at 10 µM stood at 29%.
